ChEMBL document CHEMBL1127103, “New indole derivatives as potent and selective serotonin uptake inhibitors” (Bioorg Med Chem Lett, 1993)

Experiments:
[1] = target: D(2) dopamine receptor (Mus musculus, UniProt P61168); assay: Tested for its binding affinity against Dopamine receptor D2; showed no appreciable affinity at concentration specified
[2] = target: Serotonin transporter (Rattus norvegicus); assay: Compound was evaluated for inhibition of 5-HT uptake by measuring its ability to inhibit [3H]paroxetine binding to rat cortical membranes
[3] = target: T1, Alpha-1 adrenergic receptor (Mus musculus, UniProt P97714+P97717+P97718); assay: Tested for its binding affinity against Alpha-1 adrenergic receptor; showed no appreciable affinity at concentration specified; assay type: protein assay
T1 sequence (P97714 whole entry): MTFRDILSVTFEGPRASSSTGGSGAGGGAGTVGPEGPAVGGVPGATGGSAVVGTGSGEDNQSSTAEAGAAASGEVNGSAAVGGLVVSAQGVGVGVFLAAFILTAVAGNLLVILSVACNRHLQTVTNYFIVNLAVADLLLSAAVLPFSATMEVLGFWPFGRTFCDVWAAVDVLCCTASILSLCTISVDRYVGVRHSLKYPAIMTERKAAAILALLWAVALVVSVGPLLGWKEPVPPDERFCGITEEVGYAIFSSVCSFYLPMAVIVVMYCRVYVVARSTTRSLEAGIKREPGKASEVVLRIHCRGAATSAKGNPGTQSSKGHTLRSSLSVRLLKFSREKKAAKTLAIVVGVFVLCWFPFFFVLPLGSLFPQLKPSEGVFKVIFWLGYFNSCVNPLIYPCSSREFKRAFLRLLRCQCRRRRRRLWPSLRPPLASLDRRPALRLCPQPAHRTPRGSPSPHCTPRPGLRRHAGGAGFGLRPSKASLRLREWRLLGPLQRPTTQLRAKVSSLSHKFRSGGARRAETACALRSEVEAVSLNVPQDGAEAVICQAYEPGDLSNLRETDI
T1 sequence (P97717 whole entry): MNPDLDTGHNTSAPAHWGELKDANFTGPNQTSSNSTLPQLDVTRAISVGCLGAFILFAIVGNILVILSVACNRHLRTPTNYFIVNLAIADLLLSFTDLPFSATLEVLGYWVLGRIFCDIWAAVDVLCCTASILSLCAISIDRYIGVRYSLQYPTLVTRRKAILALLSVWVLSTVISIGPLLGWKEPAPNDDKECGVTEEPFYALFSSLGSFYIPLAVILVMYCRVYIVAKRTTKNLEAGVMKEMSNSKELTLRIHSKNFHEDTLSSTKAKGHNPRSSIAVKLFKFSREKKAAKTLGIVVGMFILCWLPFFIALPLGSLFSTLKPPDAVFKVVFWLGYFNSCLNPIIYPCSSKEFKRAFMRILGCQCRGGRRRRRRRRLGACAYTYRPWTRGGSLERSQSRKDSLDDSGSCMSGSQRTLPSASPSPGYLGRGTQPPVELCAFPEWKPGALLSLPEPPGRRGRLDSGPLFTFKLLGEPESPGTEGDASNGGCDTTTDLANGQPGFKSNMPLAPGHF
T1 sequence (P97718 whole entry): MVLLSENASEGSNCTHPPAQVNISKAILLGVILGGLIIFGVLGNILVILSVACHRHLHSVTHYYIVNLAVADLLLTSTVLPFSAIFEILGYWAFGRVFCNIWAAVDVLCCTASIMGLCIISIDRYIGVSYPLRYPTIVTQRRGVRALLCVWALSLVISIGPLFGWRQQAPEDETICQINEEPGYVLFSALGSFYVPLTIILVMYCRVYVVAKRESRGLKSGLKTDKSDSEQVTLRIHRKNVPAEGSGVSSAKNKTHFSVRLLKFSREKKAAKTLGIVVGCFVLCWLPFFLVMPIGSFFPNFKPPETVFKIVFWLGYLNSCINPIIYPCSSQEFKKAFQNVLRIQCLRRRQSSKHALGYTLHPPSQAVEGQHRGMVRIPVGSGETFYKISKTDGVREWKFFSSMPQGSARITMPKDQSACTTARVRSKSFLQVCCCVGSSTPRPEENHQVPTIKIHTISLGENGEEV

[4] = target: Muscarinic acetylcholine receptor; assay: Tested for its binding affinity against muscarinic receptor; showed no appreciable affinity at concentration specified; assay type: protein assay
[5] = test system: Mus musculus; assay: Effective dose required for half maximal potentiation of head twitches observed with 5-HTP after oral administration (1 hr 30 min); assay type: functional
[6] = test system: Mus musculus; assay: Effective dose required for half maximal potentiation of head twitches observed with 5-HTP after subcutaneous administration (1 hr); assay type: functional; details: sc

D(2) dopamine receptor, sequence (P61168 whole entry): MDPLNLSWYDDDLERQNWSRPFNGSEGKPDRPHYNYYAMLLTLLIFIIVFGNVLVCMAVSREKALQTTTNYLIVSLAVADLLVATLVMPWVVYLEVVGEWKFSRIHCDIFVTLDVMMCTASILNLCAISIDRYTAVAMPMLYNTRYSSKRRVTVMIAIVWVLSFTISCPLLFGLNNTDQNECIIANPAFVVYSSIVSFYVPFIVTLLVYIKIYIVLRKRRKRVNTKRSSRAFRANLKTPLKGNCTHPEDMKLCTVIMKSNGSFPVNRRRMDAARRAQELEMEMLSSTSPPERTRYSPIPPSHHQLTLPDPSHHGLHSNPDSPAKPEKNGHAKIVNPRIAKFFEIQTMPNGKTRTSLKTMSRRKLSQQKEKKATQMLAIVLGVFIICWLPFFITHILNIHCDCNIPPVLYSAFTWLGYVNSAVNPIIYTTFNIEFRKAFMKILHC

Structure (SMILES) | IC50 [1] [nM] | IC50 [2] [nM] | IC50 [3] [nM] | IC50 [4] [nM] | ED50 [5] [mg/kg] | ED50 [6] [mg/kg]
O=C1N(CCN2CCC(Cc3c[nH]c4ccc(F)cc34)CC2)c2ccccc2C12CC2 | > 100 | 4 | > 100 | > 100 | > 20 | 
Cn1c(=O)c2ccccc2n(CCN2CCC(Cc3c[nH]c4ccc(F)cc34)CC2)c1=O | > 100 | 5.9 | > 100 | > 100 | 20 | 
O=c1[nH]c2ccccc2c(=O)n1CCN1CCC(Cc2c[nH]c3ccc(F)cc23)CC1 | > 100 | 0.5 | > 100 | > 100 | 20 | 
O=S1(=O)c2ccccc2CN1CCN1CCC(Cc2c[nH]c3ccc(F)cc23)CC1 | > 100 | 1 | > 100 | > 100 | 7.2 | 4.5
O=C1Nc2ccccc2S(=O)(=O)N1CCN1CCC(Cc2c[nH]c3ccc(F)cc23)CC1 | > 100 | 2.1 | > 100 | > 100 | > 20 | 
COC1=Nc2cccc3cccc(c23)N1CCN1CCC(Cc2c[nH]c3ccc(F)cc23)CC1 | > 100 | 22.6 | > 100 | > 100 |  | 
O=S1(=O)N(CCN2CCC(Cc3c[nH]c4ccc(F)cc34)CC2)c2cccc3c2N1CCC3 [RP-68303] |  | 1.2 |  |  |  | 5.1
CN1c2cccc3cccc(c23)N(CCN2CCC(Cc3c[nH]c4ccc(F)cc34)CC2)S1(=O)=O | > 100 | 3.7 | > 100 | > 100 | > 20 | 
C[Si]1(C)CN(CCN2CCC(Cc3c[nH]c4ccc(F)cc34)CC2)C(=O)c2ccccc21 | > 100 | 2.6 | > 100 | > 100 | > 20 | 
O=C1c2cccc3cccc(c23)C(=O)N1CCN1CCC(Cc2c[nH]c3ccc(F)cc23)CC1 | > 100 |  | > 100 | > 100 | 2.3 | 6.1
O=C1Cc2ccccc2N1CCN1CCC(Cc2c[nH]c3ccc(F)cc23)CC1 | > 100 | 3.1 | > 100 | > 100 |  | 
CN(CCN1CCC(Cc2c[nH]c3ccc(F)cc23)CC1)S(=O)(=O)c1ccccc1 | > 100 | 30 | > 100 | > 100 |  | 
O=C1CSc2ccccc2N1CCN1CCC(Cc2c[nH]c3ccc(F)cc23)CC1 | > 100 | 1.1 | > 100 | > 100 | > 20 | 
C[Si]1(C)CN(CCN2CCC(Cc3c[nH]c4ccc(F)cc34)CC2)S(=O)(=O)c2ccccc21 | > 100 |  | > 100 | > 100 |  | 
O=C1Nc2cccc3cccc(c23)N1CCN1CCC(Cc2c[nH]c3ccc(F)cc23)CC1 | > 100 | 1.5 | > 100 | > 100 | 2 | 4
O=S1(=O)Nc2cccc3cccc(c23)N1CCN1CCC(Cc2c[nH]c3ccc(F)cc23)CC1 | > 100 | 12 | > 100 | > 100 |  | 
CC1(C)CN(CCN2CCC(Cc3c[nH]c4ccc(F)cc34)CC2)C(=O)c2ccccc21 | > 100 | 3.8 | > 100 | > 100 | 20 | 
CNCCC(Oc1ccc(C(F)(F)F)cc1)c1ccccc1 (stereo not drawn) [FLUOXETINE] |  |  |  |  |  | 6.3
O=S(=O)(NCCN1CCC(Cc2c[nH]c3ccc(F)cc23)CC1)c1ccccc1 | > 100 | 6 | > 100 | > 100 | > 20 | 
O=C1CN(CCN2CCC(Cc3c[nH]c4ccc(F)cc34)CC2)S(=O)(=O)c2ccccc21 | > 100 |  | > 100 | > 100 | > 20 | 
